Where two headings read alike, the source gives them in different places.
Target: T1, Zcchc11 enzyme (Homo sapiens, UniProt Q5TAX3)
T1 construct: made in house; host or cells: HEK293 cells (Zcchc11); E. coli Rosetta II (LIN28A)
T1 sequence (Q5TAX3 212-1420): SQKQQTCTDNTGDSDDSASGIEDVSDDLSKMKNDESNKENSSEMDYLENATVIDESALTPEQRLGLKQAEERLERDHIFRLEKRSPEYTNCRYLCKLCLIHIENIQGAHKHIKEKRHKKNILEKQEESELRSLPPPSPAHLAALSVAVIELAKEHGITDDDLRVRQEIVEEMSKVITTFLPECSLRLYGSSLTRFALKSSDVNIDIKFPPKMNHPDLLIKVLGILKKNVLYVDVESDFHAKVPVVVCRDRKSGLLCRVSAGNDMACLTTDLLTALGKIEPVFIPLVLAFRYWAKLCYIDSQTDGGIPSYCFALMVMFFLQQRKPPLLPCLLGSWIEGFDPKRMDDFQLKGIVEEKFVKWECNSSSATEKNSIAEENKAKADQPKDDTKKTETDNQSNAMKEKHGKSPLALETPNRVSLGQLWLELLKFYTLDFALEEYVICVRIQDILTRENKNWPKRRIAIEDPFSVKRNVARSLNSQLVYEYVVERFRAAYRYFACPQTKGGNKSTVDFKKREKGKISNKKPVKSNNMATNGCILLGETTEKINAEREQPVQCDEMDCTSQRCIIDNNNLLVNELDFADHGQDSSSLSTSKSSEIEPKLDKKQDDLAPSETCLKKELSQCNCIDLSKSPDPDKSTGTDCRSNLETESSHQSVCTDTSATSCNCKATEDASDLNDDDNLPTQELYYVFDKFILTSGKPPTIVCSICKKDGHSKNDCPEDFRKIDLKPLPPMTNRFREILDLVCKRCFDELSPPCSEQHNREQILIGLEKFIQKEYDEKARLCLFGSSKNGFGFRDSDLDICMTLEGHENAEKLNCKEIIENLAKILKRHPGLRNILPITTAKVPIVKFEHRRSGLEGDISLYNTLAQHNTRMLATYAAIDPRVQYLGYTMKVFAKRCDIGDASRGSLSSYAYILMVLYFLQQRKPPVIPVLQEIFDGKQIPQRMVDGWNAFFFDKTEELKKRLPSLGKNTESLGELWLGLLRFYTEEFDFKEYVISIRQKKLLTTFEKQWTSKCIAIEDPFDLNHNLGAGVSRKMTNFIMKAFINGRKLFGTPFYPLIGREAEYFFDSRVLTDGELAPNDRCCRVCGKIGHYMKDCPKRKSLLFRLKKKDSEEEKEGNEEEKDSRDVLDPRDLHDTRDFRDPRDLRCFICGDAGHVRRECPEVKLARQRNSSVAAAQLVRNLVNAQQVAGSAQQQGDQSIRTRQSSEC
Test: TUTase assay (Zcchc11 assay, Lin28a-dependent polyuridylation of pre-let-7)
Type: biochemical
Conditions: read-out: Potency Lin28a-dep Z11 IC50
Procedure, shortened: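 Readout: time-dependent quench of 5′-fluorescein pre-let-7 (2 nM) as 3′-rhodamine A20 probe anneals to poly(U) tails. Enzyme 0.2 nM Zcchc11 (res. 212-1420), LIN28A 10 nM, UTP 5 uM; pH 7.3 HEPES, 150 mM KCl, 5 mM MgCl2, RT. 4-parameter IC50; 100% = DMSO, 0% = no UTP.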

[1] = Lin28a-dependent Zcchc11 (Z11) TUTase assay
[2] = Lin28a-dependent Zcchc11 (Z11) TUTase activity
[3] = LIN28A 10 nM, Zcchc11 0.2 nM, 5′-fluorescein pre-let-7 miRNA 2 nM, UTP 5 uM, room temperature, 30 minutes pre-incubation

SMILES | IC50 [1] [µM] | IC50 [2] [µM] | further results
CN(C)C1CN(c2ccc(-n3cc(C(=O)O)c(=O)c4cc(Cl)c(N5CCC[C@@H]5COC5CCOC5)cc43)cn2)C1 (stereo partly drawn) [Example 594, 6-chloro-1-(6-(3-(dimethylamino)azetidin-1-yl)pyridin-3-yl)-4-oxo-7-((2R)-2-(((tetrahydro-furan-3-yl)oxy)methyl)pyrrolidin-1-yl)-1,4-dihydroquinoline-3-carboxylic acid] | 1 to 10 | – | –
O=C(O)c1cn(C2CC(O)C2)c2cc(N3CCC[C@@H]3COc3ccccn3)c(F)cc2c1=O (stereo partly drawn) [Example 452, (R)-6-fluoro-1-(3-hydroxycyclo-butyl)-4-oxo-7-(2-((pyridin-2-yloxy)methyl)pyrrolidin-1-yl)-1,4-dihydroquinoline-3-carboxylic acid] | 1 to 10 | – | –
O=C(O)c1cn(-c2ccc(OCCO)cc2)c2cc(N3CCC[C@@H]3COc3ncccc3Br)c(F)cc2c1=O [Example 21, (R)-7-(2-(((3-bromopyridin-2-yl)oxy)methyl)pyrrolidin-1-yl)-6-fluoro-1-(4-(2-hydroxyethoxy)phenyl)-4-oxo-1,4-dihydroquinoline-3-carboxylic acid] | – | – | IC50 [3]: ≤ 1 µM
Cc1cccnc1OC[C@H]1CC(C)CN1c1cc2c(cc1F)c(=O)c(C(=O)O)cn2-c1ccc(O)cc1 (stereo partly drawn) [Example 7, 6-fluoro-1-(4-hydroxyphenyl)-7-((2R)-4-methyl-2-(((3-methylpyridin-2-yl)oxy)methyl)pyrrolidin-1-yl)-4-oxo-1,4-dihydroquinoline-3-carboxylic acid] | – | – | IC50 [3]: ≤ 1 µM
CN(C)C1CN(c2ccc(-n3cc(C(=O)O)c(=O)c4cc(C#N)c(N5C(COc6ncccc6F)CCC5(C)C)cc43)cn2)C1 (stereo not drawn) [Compound 264, 6-cyano-1-(6-(3-(dimethyl-amino)azetidin-1-yl)pyridin-3-yl)-7-(5-(((3-fluoropyridin-2-yl)oxy)methyl)-2,2-dimethyl-pyrrolidin-1-yl)-4-oxo-1,4-dihydro-quinoline-3-carboxylic acid] | – | 1 to 10 | –
CN(C)C1CN(c2ccc(-n3cc(C(=O)O)c(=O)c4cc(Cl)c(N5CCC[C@]5(C)COc5ncccc5Cl)nc43)cn2)C1 [Compound 185] | – | ≤ 1 | –
COc1ccnc(OC[C@H]2C[C@H]3C[C@H]3N2c2cc3c(cc2Cl)c(=O)c(C(=O)O)cn3-c2ccc(N(C)C)nc2)c1Cl [Compound 267, 6-chloro-7-((1R,3R,5R)-3-(((3-chloro-4-methoxy-pyridin-2-yl)oxy)methyl)-2-azabicyclo [3.1.0]hexan-2-yl)-1-(6-(dimethyl-amino)pyridin-3-yl)-4-oxo-1,4-dihydro-quinoline-3-carboxylic acid] | – | ≤ 1 | –
O=C(O)c1cn(-c2ccc(O)cc2C(F)(F)F)c2cc(N3CCC[C@@H]3COc3ccccn3)c(F)cc2c1=O [Compound 164, (R)-6-fluoro-1-(4-hydroxy-2-(trifluoro-methyl)phenyl)-4-oxo-7-(2-((pyridin-2-yloxy)methyl)pyrrolidin-1-yl)-1,4-dihydro-quinoline-3-carboxylic acid] | – | 10 to 50 | –
COc1ccnc(OC[C@H]2C[C@H]3C[C@H]3N2c2cc3c(cc2Cl)c(=O)c(C(=O)O)cn3-c2ccc(N3CC(N(C)C)C3)nc2)c1F [Example 685, 6-chloro-1-(6-(3-(dimethylamino)azetidin-1-yl)pyridin-3-yl)-7-((1R,3R,5R)-3-(((3-fluoro-4-methoxypyridin-2-yl)oxy)methyl)-2-azabicyclo[3.1.0]hexan-2-yl)-4-oxo-1,4-dihydroquinoline-3-carboxylic acid] | ≤ 1 | – | –
O=C(O)c1cn(-c2ccc(O)cc2)c2cc(N3CCC[C@@H]3COc3nccc4cc[nH]c34)c(F)cc2c1=O [Compound 117, (R)-7-(2-(((1H-pyrrolo[2,3-c]pyridin-7-yl)oxy)methyl)pyrrolidin-1-yl)-6-fluoro-1-(4-hydroxy-phenyl)-4-oxo-1,4-dihydro-quinoline-3-carboxylic acid] | – | ≤ 1 | –
CN(C)C1CN(c2ncc(-n3cc(C(=O)O)c(=O)c4cc(Cl)c(N5CCC[C@@]5(C)COc5ncccc5Cl)nc43)cn2)C1 [Example 623, (S)-6-chloro-7-(2-(((3-chloropyridin-2-yl)oxy)methyl)-2-methylpyrrolidin-1-yl)-1-(2-(3-(dimethylamino)azetidin-1-yl)pyrimidin-5-yl)-4-oxo-1,4-dihydro-1,8-naphthyridine-3-carboxylic acid] | ≤ 1 | – | –
CN(C)C1CN(c2ccc(-n3cc(C(=O)O)c(=O)c4cc(Cl)c(N5CCC[C@@H]5COc5ncccc5Cl)cc43)cn2)C1 [Example 78, 6-chloro-7-[(2R)-2-{[(3-chloropyridin-2-yl)oxy]methyl}pyrrolidin-1-yl]-1-{6-[3-(dimethylamino)azetidin-1-yl]pyridin-3-yl}-4-oxo-1,4-dihydroquinoline-3-carboxylic acid] | – | – | IC50 [3]: ≤ 1 µM

The next lines start with results.

IC50 [1] [µM] | IC50 [2] [µM] | SMILES | further results
– | 1 to 10 | O=C(O)c1cn(-c2cccc(F)c2F)c2cc(N3CCC[C@@H]3COc3ccccn3)c(F)cc2c1=O [Compound 142, (R)-1-(2,3-difluorophenyl)-6-fluoro-4-oxo-7-(2-((pyridin-2-yloxy)methyl)pyrrolidin-1-yl)-1,4-dihydro-quinoline-3-carboxylic acid] | –
– | 1 to 10 | O=C(O)c1cn(-c2ccc(O)cc2)c2cc(N3CCC[C@@H]3COc3nccc4[nH]cnc34)c(F)cc2c1=O [Compound 116, (R)-7-(2-(((1H-imidazo[4,5-c]pyridin-4-yl)oxy)methyl)pyrrolidin-1-yl)-6-fluoro-1-(4-hydroxy-phenyl)-4-oxo-1,4-dihydro-quinoline-3-carboxylic acid] | –
≤ 1 | – | O=C(O)c1cn(-c2cccnn2)c2cc(N3CCC[C@@H]3COc3ncccc3Cl)c(Cl)cc2c1=O [Example 498, (R)-6-chloro-7-(2-(((3-chloropyridin-2-yl)oxy)methyl)pyrrolidin-1-yl)-4-oxo-1-(pyridazin-3-yl)-1,4-dihydroquinoline-3-carboxylic acid] | –
≤ 1 | – | O=C(O)c1cn(-c2cnn(CCN3CCC3)c2)c2cc(N3CCC[C@@H]3COc3ncccc3Cl)c(Cl)cc2c1=O [Example 479, (R)-1-(1-(2-(azetidin-1-yl)ethyl)-1H-pyrazol-4-yl)-6-chloro-7-(2-(((3-chloropyridin-2-yl)oxy)methyl)pyrrolidin-1-yl)-4-oxo-1,4-dihydroquinoline-3-carboxylic acid] | –
– | ≤ 1 | Cc1cccnc1OC[C@H]1CCCN1c1cc2c(cc1Cl)c(=O)c(C(=O)O)cn2-c1ccccc1 [Compound 103, (R)-6-chloro-7-(2-(((3-methyl-pyridin-2-yl)oxy)methyl)pyrrolidin-1-yl)-4-oxo-1-phenyl-1,4-dihydro-quinoline-3-carboxylic acid] | –
≤ 1 | – | O=C(O)c1cn(-c2ccc3[nH]cnc3c2)c2cc(N3CCC[C@@H]3COc3ccccn3)c(F)cc2c1=O [Example 440, (R)-1-(1H-benzo[d]imidazol-5-yl)-6-fluoro-4-oxo-7-(2-((pyridin-2-yloxy)methyl)pyrrolidin-1-yl)-1,4-dihydroquinoline-3-carboxylic acid] | –
1 to 10 | – | O=C(O)c1cn(-c2cc(F)ccc2F)c2cc(N3CCC[C@@H]3COc3ccccn3)c(F)cc2c1=O [Example 387, (R)-1-(2,5-difluorophenyl)-6-fluoro-4-oxo-7-(2-((pyridin-2-yloxy)methyl)pyrrolidin-1-yl)-1,4-dihydroquinoline-3-carboxylic acid] | –
≤ 1 | – | COCCNc1cnc(-n2cc(C(=O)O)c(=O)c3cc(Cl)c(N4CCC[C@@H]4COc4ncccc4Cl)cc32)cn1 [Example 481, 6-chloro-7-[(2R)-2-{[(3-chloropyridin-2-yl)oxy]methyl}pyrrolidin-1-yl]-1-{5-[(2-methoxyethyl)amino]pyrazin-2-yl}-4-oxo-1,4-dihydroquinoline-3-carboxylic acid] | –
1 to 10 | – | Cc1ccc(-n2cc(C(=O)O)c(=O)c3cc(F)c(N4CCC[C@@H]4COc4ccccn4)cc32)c(C)c1 [Example 394, (R)-1-(2,4-dimethylphenyl)-6-fluoro-4-oxo-7-(2-((pyridin-2-yloxy)methyl)pyrrolidin-1-yl)-1,4-dihydroquinoline-3-carboxylic acid] | –

Reference: patent US12662491B2 (Redona Therapeutics, Inc., priority 2020, dated 2026)
